From patent publication US4699924A, “Skin treatment composition” (priority 1983, dated 1987)
Counter-ions that a name gives are not always drawn. Like-named read-outs stand apart in the source and are kept apart here.

Columns and labels:
[1] = Cloud point temperature of a 0.025M aqueous solution of polyoxyethylene(8)nonylphenyl ether with 5% by weight additive; type: physicochemical; conditions: for Effect on the cloud point temperature of nonionic surfactants: screening of non-electrolytes, in words
Protocol: An activity enhancer is accordingly defined as a non-electrolyte which is capable, at a concentration of 5% by weight of increasing the cloud point temperature of a 0.025M aqueous solution of polyoxyethylene(8)nonylphenyl ether by at least 10° C. Preferably the activity enhancer is one which is capable of increasing the cloud point temperature by at least 15° C., most preferably by at least 20° C.
It should be explained that the "cloud point" is a measure of the inverse solubility of a nonionic surfactant with temperature and can be determined by heating a standard clear aqueous solution of the nonionic surfactant until the solution becomes visibly cloudy and then measuring the temperature.
The cloud point temperature can conveniently be determined automatically using the equipment and method described by Baum et al in Mat. Res. Std. 4 26 (1964).
Examples of suitable compounds functioning as activity enhancers, together with the respective elevated cloud point temperature obtained in each case when using the standard test defined hereinbefore are listed below in Table 1.

[2] = system: guinea pig foot pad stratum corneum; assay: Increase in extensibility of guinea pig foot pad stratum corneum; design: Increase in stratum corneum extensibility: unit not given here; conditions: 0.2 M 2-hydroxyoctanoic acid + additive at 5% w/w; 3 hours at 20° C.; relative humidity 65%
Protocol: The ability of an additive to enhance the delivery to skin of 2-hydroxyoctanoic acid was measured in terms of the increase in extensibility of guinea pig foot pad stratum corneum following contact with each solution.
In this experiment, pieces of guinea pig foot pad stratum corneum, equilibrated at a relative humidity of 65%, were immersed in each solution for 3 hours at 20° C., and then removed, blotted dry and re-equilibrated at the same relative humidity. The extensibility of each piece of guinea pig foot pad stratum corneum was measured before and after this treatment in an extensiometer according to the method described in European Pat. No. 7785.

[3] = physchem; conditions: octanol/water
[4] = Table 1, activity enhancer 5% by weight, 0.025 M polyoxyethylene(8)nonylphenyl ether
[5] = Table 1, activity enhancer 5% by weight, control 33.5 °C., in °C
[6] = table of extensibility results, additive at 5% w/w, in °C
[7] = Table 2, compound which is not an activity enhancer, 5% by weight
[8] = Table 2, compound which is not an activity enhancer, 5% by weight, control 33.5 °C.

Molecule “4-methyl-6-(2,4,6-trimethyl-pentyl)-2-(1H)--pyridone” has a Log partition coefficient (octanol/water) of 1.28.
In the case of `C1COCCO1` [1,4 Dioxane], the Cloud point temperature [1, 4] was 44.0 °C and the “Elevation of cloud point temperature” value [1, 5] was 10.5.
With `CC(O)C(=O)O` (stereo not drawn) [2-hydroxypropionic acid] the Cloud point temperature [1, 4] was 45.0 °C, the “Elevation of cloud point temperature” value [1, 5] was 11.5 and the “Elevation of cloud point temperature” value [1, 6] was 11.5. The “Increase in stratum corneum extensibility” value (“Increase” below) [2] was 17.1.
With `CCCCCCC(=O)C(=O)O` [2-ketooctanoic acid] the logP [3] was 3.2.
With `CC(C)CO` [2-methyl propan-1-ol] the Cloud point temperature [1, 7] was 41.0 °C and the “Elevation of cloud point temperature” value [1, 8] was 7.5 °C.
For `CC(C)(C)O` [2-methyl propan-2-ol], the Cloud point temperature [1, 4] was 55.0 °C and the “Elevation of cloud point temperature” value [1, 5] was 21.5.
In the case of `O=C1CCCN1` [2-pyrrolidone], the “Elevation of cloud point temperature” value [1, 6] was 15.5 and the “Increase” value [2] was 28.0.
`CCC1OC(=O)C(C)C(OC2CC(C)(OC)C(O)C(C)O2)C(C)C(OC2OC(C)C(O)C(N(C)C)C2O)C(C)(O)CC(C)C(=O)C(C)C(O)C1(C)O` (stereo not drawn) [4'-hydroxyerythromycin] showed a Log partition coefficient (octanol/water) of 1.44.
In the case of `CN1C(=O)NC(=O)C(C)(C)C1=O` [5,5-dimethyl, 1-methyl barbituric acid], the logP [3] was 1.09.
In the case of `CCC1(c2ccccc2)C(=O)NC(=O)NC1=O` [5-ethyl-5-phenyl barbituric acid, reference compound], the Log partition coefficient (octanol/water at 20° C.) was 1.42.
For `CC(C)=O` [Acetone], the Cloud point temperature [1, 4] was 46.3 °C and the “Elevation of cloud point temperature” value [1, 5] was 12.8.
With `CC(O)CCO` (stereo not drawn) [Butan-1,3-diol] the Cloud point temperature [1, 7] was 41.5 °C and the “Elevation of cloud point temperature” value [1, 8] was 8.0 °C.
With `OCCCCO` [Butan-1,4-diol] the Cloud point temperature [1, 4] was 45.0 °C and the “Elevation of cloud point temperature” value [1, 5] was 11.5.
In the case of `CCCCO` [Butan-1-ol], the Cloud point temperature [1, 7] was 36.3 °C, the “Elevation of cloud point temperature” value [1, 8] was 2.8 °C and the “Effect on the cloud point temperature of nonionic surfactants” value (“Effect on the cloud point temperature” below) [1] was “reduce the cloud point temperature”. For the same molecule, the “Elevation of cloud point temperature” value [1, 6] was 2.8 and the “Increase” value [2] was 13.2.
For `OC1CCCCC1` [Cyclohexanol], the Cloud point temperature [1, 7] was 11.0 °C, the “Elevation of cloud point temperature” value [1, 8] was -22.5 °C and the “Effect on the cloud point temperature” value [1] was “reduce the cloud point temperature”.
For `CC(O)COCC(C)O` (stereo not drawn) [Di(2-hydroxypropyl) ether], the Cloud point temperature [1, 4] was 44.8 °C, the “Elevation of cloud point temperature” value [1, 5] was 11.3 and the “Elevation of cloud point temperature” value [1, 6] was 11.3. For the same molecule, the “Increase” value [2] was 21.6.
For `C[S+](C)[O-]` [Dimethyl sulphoxide], the Cloud point temperature [1, 7] was 33.9 °C, the “Elevation of cloud point temperature” value [1, 8] was 0.4 °C and the “Elevation of cloud point temperature” value [1, 6] was -0.5. The “Increase” value [2] was 5.
With `OCCO` [Ethan-1,2-diol] the Cloud point temperature [1, 7] was 33.0 °C, the “Elevation of cloud point temperature” value [1, 8] was -0.5 °C and the “Elevation of cloud point temperature” value [1, 6] was -0.5. For the same molecule, the “Increase” value [2] was 5.
In the case of `CCOC(=O)C(C)O` (stereo not drawn) [Ethyl-2hydroxypropanoate], the Cloud point temperature [1, 4] was 52.1 °C and the “Elevation of cloud point temperature” value [1, 5] was 18.6.
In the case of `CC(O)CCC(C)O` (stereo not drawn) [Hexan-2,5-diol], the Cloud point temperature [1, 4] was 52.0 °C, the “Elevation of cloud point temperature” value [1, 5] was 18.5 and the “Elevation of cloud point temperature” value [1, 6] was 18.5. For the same molecule, the “Increase” value [2] was 37.0.
In the case of `C1COCCN1` [Morpholine], the Cloud point temperature [1, 7] was 40.0 °C and the “Elevation of cloud point temperature” value [1, 8] was 6.5 °C.
In the case of `CC(=O)Nc1ccccc1C(=O)O` [N--acetyl O--aminobenzoic acid], the Log partition coefficient (octanol/water at 20° C.) was 1.88.
Molecule `O=Cc1ccccc1O` [O--hydroxybenzaldehyde] has a logP [3] of 1.7.
With `CCOCCOCCO` [POE(2) ethyl ether, polyoxyethylene(2) ethyl ether] the Cloud point temperature [1, 4] was 46.0 °C and the “Elevation of cloud point temperature” value [1, 5] was 12.5.
In the case of `COCCOCCO` [POE(2) methyl ether], the Cloud point temperature [1, 4] was 43.5 °C and the “Elevation of cloud point temperature” value [1, 5] was 10.0.
With `CC(O)CC(C)O` (stereo not drawn) [Pentan-2,4-diol] the Cloud point temperature [1, 4] was 48.0 °C, the “Elevation of cloud point temperature” value [1, 5] was 14.5 and the “Elevation of cloud point temperature” value [1, 6] was 14.5. The “Increase” value [2] was 17.0.
With `OCC(O)CO` [Propan-1,2,3-triol] the Cloud point temperature [1, 7] was 32.2 °C, the “Elevation of cloud point temperature” value [1, 8] was -1.3 °C and the “Effect on the cloud point temperature” value [1] was “reduce the cloud point temperature”. For the same molecule, the “Elevation of cloud point temperature” value [1, 6] was -1.3 and the “Increase” value [2] was 5.
In the case of `CC(O)CO` (stereo not drawn) [Propan-1,2-diol], the Cloud point temperature [1, 7] was 39.0 °C, the “Elevation of cloud point temperature” value [1, 8] was 5.5 °C and the “Elevation of cloud point temperature” value [1, 6] was 5.5. For the same molecule, the “Increase” value [2] was 12.6.
For `CCCO` [Propan-1-ol], the Cloud point temperature [1, 4] was 53.0 °C and the “Elevation of cloud point temperature” value [1, 5] was 19.5.
With `CC(C)O` [Propan-2-ol] the Cloud point temperature [1, 4] was 56.0 °C and the “Elevation of cloud point temperature” value [1, 5] was 22.5.
For `C1CCOC1` [Tetrahydrofuran], the Cloud point temperature [1, 4] was 45.0 °C and the “Elevation of cloud point temperature” value [1, 5] was 11.5.
`Nc1ncnc2c1ncn2[C@@H]1O[C@H](COP(=O)(O)OP(=O)(O)O)[C@@H](O)[C@H]1O` [adenosine diphosphate] showed a logP [3] of 0.89.
In the case of `Nc1ncnc2c1ncn2[C@@H]1O[C@H](COP(=O)(O)OP(=O)(O)OP(=O)(O)O)[C@@H](O)[C@H]1O` [adenosine triphosphate], the logP [3] was 1.64.
With `CC(N)Cc1ccccc1` (stereo not drawn) [amphetamine, reference compound] the Log partition coefficient (octanol/water at 20° C.) was 1.63.
`O=C(O)CCCCCCCC(=O)O` [azelaic acid, reference compound] showed a Log partition coefficient (octanol/water) of 1.57.
With `c1ccc2[nH]cnc2c1` [benzimidazole] the Log partition coefficient (octanol/water at 20° C.) was 1.34.
`CC1(C)S[C@@H]2[C@H](NC(=O)Cc3ccccc3)C(=O)N2[C@H]1C(=O)O` [benzyl pencillin, reference compound] showed a Log partition coefficient (octanol/water) of 1.83.
Work on `COc1ccc2c3c1O[C@H]1[C@@H](O)C=C[C@H]4[C@@H](C2)N(C)CC[C@@]341` [codeine, reference compound] yielded a logP [3] of 1.01.
With `CC[C@H]1OC(=O)[C@H](C)[C@@H](O[C@H]2C[C@@](C)(OC)[C@@H](O)[C@H](C)O2)[C@H](C)[C@@H](O[C@@H]2O[C@H](C)C[C@H](N(C)C)[C@H]2O)[C@](C)(O)C[C@@H](C)C(=O)[C@H](C)[C@@H](O)[C@]1(C)O` [erythromycin, reference compound] the Log partition coefficient (octanol/water) was 1.26.
Molecule `CCOC(=O)c1cccnc1` [ethyl nicotinate] has a Log partition coefficient (octanol/water at 20° C.) of 1.32.
With `O=C(O)c1cccc(O)c1` [m-hydroxybenzoic] the Log partition coefficient (octanol/water) was 1.50.
For `Cc1cccc(S(N)(=O)=O)c1` [m-methylbenzene sulphonamide], the Log partition coefficient (octanol/water at 20° C.) was 0.85.
In the case of `NS(=O)(=O)c1cccc([N+](=O)[O-])c1` [m-nitrobezene sulphonamide], the Log partition coefficient (octanol/water at 20° C.) was 0.55.
With `NC(=O)c1cccnc1` [niacinamide, reference compound] the Log partition coefficient (octanol/water at 20° C.) was 1.37.
With `Oc1ccccc1O` [o-dihydroxybenzene] the Log partition coefficient (octanol/water at 20° C.) was 0.80.
In the case of `Cc1ccccc1S(N)(=O)=O` [o-methylbenzene sulphonamide], the Log partition coefficient (octanol/water) was 0.84.
With `Nc1ccc(C(=O)O)cc1` [p-aminobenzoic acid, reference compound] the Log partition coefficient (octanol/water) was 0.68.
Molecule `Oc1ccc(O)cc1` [p-dihyroxybenzene] has a Log partition coefficient (octanol/water) of 0.59.
`Cc1ccc(S(N)(=O)=O)cc1` [p-methylbenzene sulphonamide] gave a Log partition coefficient (octanol/water at 20° C.) of 0.82.
Molecule `NS(=O)(=O)c1ccc([N+](=O)[O-])cc1` [p-nitrobenzene sulphonamide] has a Log partition coefficient (octanol/water at 20° C.) of 0.64.
`CCN(CC)CCOC(=O)c1ccc(N)cc1` [procaine, reference compound] gave a Log partition coefficient (octanol/water) of 1.87.
Molecule `O=C1NS(=O)(=O)c2ccccc21` [saccharin] has a Log partition coefficient (octanol/water) of 0.91.
`O=C(O)c1ccccc1O` [salicylic acid, reference compound] gave a Log partition coefficient (octanol/water at 20° C.) of 2.26.
In the case of `OC[C@@H](O)[C@@H](O)[C@H](O)[C@@H](O)CO` [sorbitol], the “Effect on the cloud point temperature” value [1] was “reduce the cloud point temperature”.
`O=C1C[C@@H]2OCC=C3CN4CC[C@]56c7ccccc7N1[C@H]5[C@H]2[C@H]3C[C@H]46` [strychnine] showed a Log partition coefficient (octanol/water) of 1.93.
In the case of `COc1cc(NS(=O)(=O)c2ccc(N)cc2)ncn1` [sulphamonomethoxine, reference compound], the logP [3] was 0.85.
For `Nc1ccc(S(=O)(=O)Nc2ccnn2-c2ccccc2)cc1` [sulphaphenzole, reference compound], the logP [3] was 1.57.
Molecule `COC1=CC=C2[C@H]3Cc4ccc(OC)c5c4[C@@]2(CCN3C)[C@H]1O5` [thebaine] has a logP [3] of 1.91.
In the case of `CCOC(=O)CC(O)(CC(=O)OCC)C(=O)OCC` [triethyl citrate], the Log partition coefficient (octanol/water at 20° C.) was 0.67.
`CC1(C)SC2C(NC(=O)C(O)c3ccccc3)C(=O)N2C1C(=O)O` (stereo not drawn) [α-hydroxy benzyl penicillin] gave a Log partition coefficient (octanol/water at 20° C.) of 1.40.
